Source: patent US9403843B2, “Cysteine protease inhibitors and uses thereof” (The Trustees of Columbia University in the City of New York, priority 2012, dated 2016)
Read-outs that look alike come from different tables or passages of the source.

Columns and labels:
APP/PS1 mice [1] = experiment: Behavioral rescue assays (contextual fear memory, 2-day RAWM reference memory); type: in vivo; settings: 3 month old APP/PS1 mice
Description: APP/PS1-vehicle: n=15; APP/PS1-67: n=6; APP/PS1-30a: n=10; WT-vehicle: n=15; WT-67=5; WT-30a: n=8, APP/PS1-33: n=11; WT-33: n=8, APP/PS1-50: n=10; WT-50: n=8. P<0.05 in all transgenic groups treated with compound compared to their respective vehicle-treated transgenics.
APP/PS1-vehicle: n=17; APP/PS1-67: n=9; APP/PS1-30a: n=10; WT-vehicle: n=18; WT-67=9; WT-30a: n=9, APP/PS1-33: n=10; WT-33: n=9, APP/PS1-50: n=11; WT-50: n=9.
The ability of compounds to rescue the defects in associative and reference memory in 3 month old APP/PS1 animals was assessed. Capability of ameliorating the defects in contextual fear memory was tested via i.p. administration (FIG. 12). In the 2-day RAWM test, daily injections of the 67, 30a, 33 and 50 from the 2nd month of age were beneficial against the loss of contextual fear memory and reference memory.
Impact of chronic treatment on against memory loss in older APP/PS1 mice (7 months of age) with a more severe plaque load was also investigated. Compounds 67, 33 and 50 were beneficial against memory impairment following chronic administration (FIG. 13).
(§1) The ability of a prodrug to rescue the defects in associative and reference memory in 3 month old APP/PS1 animals was assessed. […] Thus, the esterification seems to improve PK but it spoils PD parameters. Compound 89 ameliorates both LTP and memory in 3 month old APP/PS1 mice (FIG. 15). Daily treatment with 89 from the age of 2 months until 3 months ameliorated the defect in LTP (A) contextual fear memory (B) and reference memory (C) in APP/PS1 mice. n=10 for all groups. P<0.05 in transgenics treated with compound compared to their respective vehicle-treated transgenics.

APP/PS1 mice [2] = experiment: LTP in APP/PS1 mice after daily treatment; type: in vivo; settings: daily treatment from 2 until 3 months
Procedure: P<0.05 in transgenics treated with compound compared to their respective vehicle-treated transgenics.
as §1

Aβ40 and Aβ42 [3] = experiment: Effect on Aβ levels in APP/PS1 mice; type: in vivo; settings: compound-treated vs vehicle-treated APP/PS1 transgenics
Description: Increase of brain and plasma levels of Aβ and appearance of amyloid plaques is an important feature of AD.

full-length human Cal1 [4] = target: T1, full-length human Cal1 (Homo sapiens (Human), UniProt P07384); experiment: Calpain inhibition FRET assay; type: biochemical; settings: Table 2; approximate IC50; read-out: Cal I IC50
Cal I = experiment: Relative selectivity for Cal I (E64 = 1.0), Table 2; type: biochemical; settings: relative to E64 = 1.0
full-length human Cal1 [5] = target: T1, full-length human Cal1; experiment: Calpain inhibition FRET assay; type: biochemical; settings: Table 3, 20 min incubation, FRET substrate
primary neurons = experiment: LD50 in primary neurons; type: cell-based; settings: YES = LD50 ≧ 50 μM in primary neurons
[6] = tested on: Aβ-induced LTP impairment; experiment: LTP rescue test; settings: LTP rescue, benchmark
Procedure: Residual levels of potentiation were averaged during the last 5 min of LTP.

Cal1cat vs CathB = experiment: Competition assay for Cal1 vs CathB using the biotinylated epoxide probe; type: binding, rat; settings: for blocking of active site modification by probe 27 (western blot signal): 10 min pre-treatment, then 20 min with 27
Procedure: Anti-biotin western blotting of Cal1cat (Lane 6) or CathB (Lane 7) after incubation with 27 show the expected immunoreactivity of the covalently modified proteins. […] Densitometric analysis, using means from triplicate immunoblots, was used to estimate the modification of each protein by 27 in the presence of inhibitors relative to control (Lane 1: ratio=1.0).
Cal1cat was used in place of the full length enzyme to avoid autocatalysis.
Cal1cat and CathB were pre-treated with inhibitors for 10 min, followed by a 20 min incubation with the biotinylated epoxide, 27, as illustrated in FIG. 4. […] A more quantitative estimate of selectivity was achieved by comparison of band intensities.
The appropriate inhibitor (5 μM) was pre-incubated in a mixture containing Cal1cat (2 μM), CathB (2 μM), TCEP (1 mM), and Ca^2+ (30 μM) for 10 min at 37° C. […] (5 μM) was then added and the mixture incubated an additional 20 min. The reaction was quenched with EDTA (10 μM) and samples were ran using 4-16% SDS PAGE gel, subsequently transferred to PVDF membrane and visualized by Pierce ECL (Enhanced chemiluminescent) western blotting substrate, intensity of each blot was calculated using densitometry software. Relative inhibition of each enzyme was calculated with respect to enzyme activity in the absence of inhibitor. Inhibitor preference to Cal1cat with respect to CathB, was calculated by dividing relative Cal1cat inhibition with relative CathB inhibition of that particular inhibitor.

Aβ40 and Aβ42 [7] = settings: earlier observation; cited from earlier work
Cal1cat = Cal1cat (Rattus norvegicus (Rat), UniProt P97571); experiment: LC-MS/MS examination of inhibitor modified Cal1cat active site; type: binding; settings: for modification of the active site cysteine of Cal1cat: Cal1cat 1 μM, varying inhibitor concentration
Procedure: (FIG. 3A) After capping of free cysteines with iodoacetamide (IAA) and in gel digest, peptide fragments were analyzed by LC-MS/MS. (FIG. 3B) Total ion chromatograms (TIC) for the incubation of recombinant Cal1cat (5 μM) in the absence or presence of inhibitors (10 μM). A non-active site and IAA-capped peptide fragment (Rt=41.3 min) was used as an internal standard for EIC quantitation. (FIG. 3C) Active site Cys modification of Cal1cat was concentration dependent in incubation containing Cal1cat (1 μM) and vary concentrations of inhibitors.
Inhibition kinetics and x-ray crystallography support a mechanism of calpain inhibition by E-64, resulting from covalent modification of the active site Cys (Suzuki, K. et al., FEBS Letters 1983, 152, 67-70; herein incorporated by reference in its entirety). LC-MS/MS was used to support a similar mechanism for 24a. The experimental methodology is outlined in FIG. 3A. Cal1cat (5 μM) was incubated with the appropriate inhibitor (10 μM) for 30 min. The mixture was quenched with EDTA (10 μM), and run on a SDS PAGE gel. Band excision, in-gel capping office cysteines with iodoacetamide (IAA, […]), tryptic digest, and subsequent LC-MS/MS analysis afforded the chromatograms shown in FIG. 3B. […] A peptide fragment containing an IAA labeled non-active site cysteine was used as an internal standard for semi-quantitative EIC analysis of the degree of active site modification observed (FIG. 3B). It is noteworthy that although Cal1cat was employed in these studies, analysis of full length Cal1 gave an identical active site peptide fragment (TIC of control digest from Cal1cat and full length Cal1 are compared in Example 10).
The reaction was quenched with EDTA (10 μM) and reaction mixture ran on a SDS PAGE gel. The Cal1cat containing band was cut from the gel and submitted to in-gel alkylation with IAA (100 mM) for 60 min, followed by trypsin digestion. LC-MS/MS was carried out on an Agilent 6300 Ion-Trap LC/MS. […] The resulting TIC and EIC were analyzed for anticipated m/z modified peptide fragments.

papain = papain (Carica papaya (Papaya), UniProt P00784); experiment: biochemical; type: biochemical; settings: for ki Papain: inhibition rate; for rel Papain: ki/Ki calculated relative to E-64
Description: (§2) Papain is representative of a family of typically lysosomal or secreted cysteine proteases, including the human cathepsins (B, C, F, H, K, L1-2, O, S, W, Z). […] Several methods have been reported in the literature for detailed kinetic analysis of the irreversible inhibition of cysteine proteases, including Cal1. […] (SEQ ID NO: 8). Using this substrate, kinetic parameters were derived using the method of Davies and co-workers, whereby “progress curves” were initially obtained measuring product formation as a function of time and fitted to y=P∞*(1−e^(−k*x)) (FIG. 7) (Cuerrier, D. et al., J Biol Chem 2007, 282, 9600-11; herein incorporated by reference in its entirety). […] Kinetic parameters (ki, KI, ki/KI) were obtained from double reciprocal plots (FIG. 7).
(§3) Full length porcine calpain (156 nM), or papain (236 pM) was added to a solution of 100 mM NaCl, 50 mM HEPES, pH 7.6, 1 mM TCEP, 30 μM Suc-LLVY-AMC (SEQ ID NO: 8) substrate, and inhibitor (0.5 to 50 μM). Calpain reactions also contained CaCl2 (1 mM and 100 mM for porcine and rat respectively). Both substrate and inhibitors were dissolved in acetonitrile/DMSO (1:1) with the exception of E-64, dissolved in water. Organic solvent remained <2% in all reactions, and most often <1%. Reactions were carried out in microtiter 96-well plates, with 150 μL per well, 30° C., and product formation was monitored over time by fluorescence (Ex/Em 346/444 nm, with 420 nm cutoff filter). Kinetic values of kobs were determined via non-linear regression using one-phase association analysis and linear plots of 1/kobs vs. 1/[I] provided kinetic constants ki and KI.

[8] = target: Full length porcine calpain (Sus scrofa (Pig), UniProt P35750); experiment: Calpain inhibition kinetics studies (Suc-LLVY-AMC substrate); type: biochemical; settings: for Ki: apparent equilibrium constant, read-out: K1 Calpain1; for Ki / ki Calpain1: full length Cal1; for ki Calpain1: inhibition rate; for rel Calpain1: ki/Ki calculated relative to E-64
Description: as §2, §3

[9] = mean ± S.D. of triplicate experiments

Chain of papain (P00784 134-345): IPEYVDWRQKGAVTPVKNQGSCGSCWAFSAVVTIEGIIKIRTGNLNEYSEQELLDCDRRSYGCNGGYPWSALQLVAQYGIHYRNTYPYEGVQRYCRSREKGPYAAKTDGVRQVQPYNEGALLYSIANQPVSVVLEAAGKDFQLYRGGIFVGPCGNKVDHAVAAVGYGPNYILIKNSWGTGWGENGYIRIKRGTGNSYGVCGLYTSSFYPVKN
Chain of Cal1cat (P97571 other isoform, or with tags, fused parts or gaps): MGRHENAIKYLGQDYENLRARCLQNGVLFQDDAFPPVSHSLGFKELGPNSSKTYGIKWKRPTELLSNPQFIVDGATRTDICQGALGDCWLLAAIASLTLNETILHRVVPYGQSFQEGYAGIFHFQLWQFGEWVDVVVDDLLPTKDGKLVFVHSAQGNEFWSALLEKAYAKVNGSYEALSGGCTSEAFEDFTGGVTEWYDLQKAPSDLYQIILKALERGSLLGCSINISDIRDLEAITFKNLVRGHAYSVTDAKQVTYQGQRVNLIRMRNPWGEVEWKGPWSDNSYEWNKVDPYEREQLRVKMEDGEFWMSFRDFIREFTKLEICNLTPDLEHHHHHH
T1 sequence (P07384 whole entry): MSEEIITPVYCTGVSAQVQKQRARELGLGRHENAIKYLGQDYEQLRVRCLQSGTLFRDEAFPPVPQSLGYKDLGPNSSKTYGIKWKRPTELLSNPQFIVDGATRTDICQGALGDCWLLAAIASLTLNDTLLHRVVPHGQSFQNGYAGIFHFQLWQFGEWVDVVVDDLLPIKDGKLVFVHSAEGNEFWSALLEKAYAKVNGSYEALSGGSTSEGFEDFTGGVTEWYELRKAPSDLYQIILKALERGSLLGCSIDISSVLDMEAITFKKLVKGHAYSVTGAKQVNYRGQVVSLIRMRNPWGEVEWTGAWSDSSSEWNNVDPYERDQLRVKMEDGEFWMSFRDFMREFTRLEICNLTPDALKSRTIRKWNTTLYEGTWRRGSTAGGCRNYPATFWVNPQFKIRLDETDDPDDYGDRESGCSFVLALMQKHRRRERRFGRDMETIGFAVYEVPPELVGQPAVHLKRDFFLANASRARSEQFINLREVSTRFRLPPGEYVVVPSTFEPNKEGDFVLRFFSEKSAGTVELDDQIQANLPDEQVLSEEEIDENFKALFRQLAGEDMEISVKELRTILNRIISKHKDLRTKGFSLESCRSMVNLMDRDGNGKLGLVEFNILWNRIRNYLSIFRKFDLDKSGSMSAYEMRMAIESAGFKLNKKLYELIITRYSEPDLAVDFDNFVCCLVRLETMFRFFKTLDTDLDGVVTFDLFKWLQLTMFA
T1 sequence (P04632 whole entry partner): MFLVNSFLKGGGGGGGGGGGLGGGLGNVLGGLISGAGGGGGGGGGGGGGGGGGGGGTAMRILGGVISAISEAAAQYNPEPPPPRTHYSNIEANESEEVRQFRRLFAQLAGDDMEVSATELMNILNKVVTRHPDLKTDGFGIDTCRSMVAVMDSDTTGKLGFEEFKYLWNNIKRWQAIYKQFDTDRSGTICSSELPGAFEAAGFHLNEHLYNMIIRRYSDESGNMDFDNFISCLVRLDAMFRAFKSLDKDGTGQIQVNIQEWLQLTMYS
Chain of Full length porcine calpain (P35750 whole entry): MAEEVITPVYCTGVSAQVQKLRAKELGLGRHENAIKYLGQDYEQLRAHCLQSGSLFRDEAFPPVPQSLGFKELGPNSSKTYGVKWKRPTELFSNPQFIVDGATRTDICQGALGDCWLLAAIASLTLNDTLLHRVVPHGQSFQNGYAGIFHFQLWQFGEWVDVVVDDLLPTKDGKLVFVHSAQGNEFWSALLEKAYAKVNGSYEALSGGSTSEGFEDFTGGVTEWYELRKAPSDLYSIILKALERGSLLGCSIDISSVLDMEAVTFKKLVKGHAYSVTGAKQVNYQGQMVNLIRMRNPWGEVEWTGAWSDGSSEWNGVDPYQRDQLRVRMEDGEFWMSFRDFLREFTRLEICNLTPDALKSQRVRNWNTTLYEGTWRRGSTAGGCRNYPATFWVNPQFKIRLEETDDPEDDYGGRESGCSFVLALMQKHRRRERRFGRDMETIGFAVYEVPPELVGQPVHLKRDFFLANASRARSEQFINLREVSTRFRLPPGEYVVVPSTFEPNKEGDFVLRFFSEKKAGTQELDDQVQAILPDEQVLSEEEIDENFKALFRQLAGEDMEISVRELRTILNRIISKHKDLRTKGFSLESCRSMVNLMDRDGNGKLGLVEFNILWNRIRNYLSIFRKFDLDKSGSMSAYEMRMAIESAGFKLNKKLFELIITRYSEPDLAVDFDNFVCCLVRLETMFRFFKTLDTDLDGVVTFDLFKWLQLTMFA
Chain of Full length porcine calpain (P04574 whole entry partner): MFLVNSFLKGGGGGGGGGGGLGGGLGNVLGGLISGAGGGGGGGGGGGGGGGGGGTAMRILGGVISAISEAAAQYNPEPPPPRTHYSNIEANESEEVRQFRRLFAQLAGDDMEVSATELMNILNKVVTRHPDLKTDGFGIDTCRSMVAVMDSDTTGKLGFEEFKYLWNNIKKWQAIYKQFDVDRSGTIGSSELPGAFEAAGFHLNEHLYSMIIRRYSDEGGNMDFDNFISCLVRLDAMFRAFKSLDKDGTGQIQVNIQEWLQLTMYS

SMILES | IC50 (full-length human Cal1 [4]) [nM] | Relative selectivity for Cal I E64 = 1.0 (Cal I) | IC50 (full-length human Cal1 [5]) [nM] | LD50 ≧ 50 μM primary neurons (primary neurons) | blocking of active site modification by probe 27 (western blot signal) (Cal1cat vs CathB) | Aβ levels and plaque load (Aβ40 and Aβ42 [7]) | modification of the active site cysteine of Cal1cat (Cal1cat) | ki Papain (papain) [s⁻¹] | rel Papain (papain) | Ki [8] [nM] | ki Calpain1 [8] [s⁻¹] | rel Calpain1 [8] | further results
CCOC(=O)[C@@H]1O[C@H]1C(=O)N[C@@H](Cc1cscn1)C(=O)Nc1nc(-c2ccc(F)cc2)cs1 [Compound 89] |  |  |  |  |  |  |  |  |  |  |  |  | reference memory (APP/PS1 mice [1]; 2-day RAWM, daily from 2 months): ameliorated; contextual fear memory (APP/PS1 mice [1]; daily i.p. from 2 months): ameliorated; defect in LTP (APP/PS1 mice [2]): ameliorated; Aβ40 and Aβ42 levels in hippocampi (Aβ40 and Aβ42 [3]): no difference was detected
CC(C)C[C@H](NC(=O)[C@H]1O[C@@H]1C(=O)O)C(=O)NCCCCNS(=O)(=O)c1ccc(F)cc1 [Compound 25, (2S,3S)-3-((S)-1-(4-(4-fluorophenylsulfonamido)butylamino)-4-methyl-1-oxopentan-2-ylcarbamoyl)oxirane-2-carboxylic acid] | 100 | 0.9 | 150 | YES |  |  |  |  |  |  |  |  | 
CC(C)C[C@H](NC(=O)C1O[C@@H]1C(=O)O)C(=O)NCCCCNC(=N)N (stereo partly drawn) [Compound E64, L-trans-epoxysuccinyl-leucylamido(4-guanidino)butane, reference compound] | 100 | 1.0 | 100 | YES | substantial loss of signal | do not have any effect | concentration dependent modification | 28.6 | 1 | 4000 | 0.12 | 1 | ED50 [6]: 650 nM; selectivity for Cal1cat (ratio of Cal1cat versus CathB band intensities) (Cal1cat vs CathB; ratio for probe 27 alone set as 1.0, inhibitor 5 μM): 1.5; Ki (papain): 5100 nM; 10^−5 × ki/Ki Papain (papain; [9]): 56.3 ± 5.2; Relative Selectivity ([8]; Cal1 over papain, ki/Ki relative to E-64 set at 1.0): 1; 10^−4 × ki/Ki Calpain1 [8, 9]: 3.02 ± 0.15
CC(C)C[C@H](NC(=O)[C@H]1O[C@@H]1C(=O)O)C(=O)NCCCCNC(=O)CCCCC1CCSS1 (stereo partly drawn) [Compound 26, (2S,3S)-3-((2S)-1-(4-(5-(1,2-dithiolan-3-yl)pentanamido)butylamino)-4-methyl-1-oxopentan-2-ylcarbamoyl)oxirane-2-carboxylic acid] | 150 | 1.6 | 100 | YES |  |  |  |  |  |  |  |  | 
CC(C)C[C@H](NS(=O)(=O)c1ccccc1)C(=O)N[C@@H](C(C)C)[C@@H](O)c1c(-c2ccccc2)c1=O [BDA-410] |  |  |  |  |  | do not have any effect |  |  |  |  |  |  | 
CC(C)C[C@H](NC(=O)[C@H]1O[C@@H]1C(=O)O)C(=O)Nc1nc(-c2ccc(F)cc2)cs1 [Compound 24a, (2S,3S)-3-((S)-1-(4-(4-fluorophenyl)thiazol-2-ylamino)-4-methyl-1-oxopentan-2-ylcarbamoyl)oxirane-2-carboxylic acid] |  |  |  |  | substantially reduced signals from both enzymes |  | concentration dependent modification | 17.1 | 1.9 | 6000 | 0.16 | 0.91 | active site modification on co-incubation of E-64 and 24a (EIC peak areas) (Cal1cat; Cal1cat with E-64 and 24a, both 1 μM): greater modification; Ki (papain; apparent equilibrium constant, read-out: K1 Papain): 1600 nM
